Source: patent US7118921B1, “Incorporation and applications of biomolecular interactions within a carrier” (McMaster University, priority 1999, dated 2006)

Test system: melittin and intact BCaM:melittin complex
Assay type: binding, bovine

CN1CCN(CCCN2c3ccccc3Sc3ccc(C(F)(F)F)cc32)CC1 [TFP, trifluoperazine]
Effect on emission wavelength and anisotropy of the intact complex or of melittin: not affected
Effect on intensity of melittin or the intact complex: large decrease in intensity
